Data published in ChEMBL document CHEMBL1201862, “PubChem BioAssay data set” (2004).
Values joined by “and” are separate entries in the source; they are usually repeats but may differ in a detail not shown here. Identical values can stand only once. Active and inactive are the calls of the source.

Assays:
[1] = target: T1, Polyadenylate-binding protein 1 (Homo sapiens, UniProt P11940); assay: PABP1 MLLE–PAM2 interaction inhibitors, dose response, miRNA deadenylation inhibitor project, biochemical, fluorescence polarization, Cy5-PAM2 peptide, secondary (AID 602260); format: functional; conditions: read-out: IC50_Mean
T1 sequence (P11940 whole entry): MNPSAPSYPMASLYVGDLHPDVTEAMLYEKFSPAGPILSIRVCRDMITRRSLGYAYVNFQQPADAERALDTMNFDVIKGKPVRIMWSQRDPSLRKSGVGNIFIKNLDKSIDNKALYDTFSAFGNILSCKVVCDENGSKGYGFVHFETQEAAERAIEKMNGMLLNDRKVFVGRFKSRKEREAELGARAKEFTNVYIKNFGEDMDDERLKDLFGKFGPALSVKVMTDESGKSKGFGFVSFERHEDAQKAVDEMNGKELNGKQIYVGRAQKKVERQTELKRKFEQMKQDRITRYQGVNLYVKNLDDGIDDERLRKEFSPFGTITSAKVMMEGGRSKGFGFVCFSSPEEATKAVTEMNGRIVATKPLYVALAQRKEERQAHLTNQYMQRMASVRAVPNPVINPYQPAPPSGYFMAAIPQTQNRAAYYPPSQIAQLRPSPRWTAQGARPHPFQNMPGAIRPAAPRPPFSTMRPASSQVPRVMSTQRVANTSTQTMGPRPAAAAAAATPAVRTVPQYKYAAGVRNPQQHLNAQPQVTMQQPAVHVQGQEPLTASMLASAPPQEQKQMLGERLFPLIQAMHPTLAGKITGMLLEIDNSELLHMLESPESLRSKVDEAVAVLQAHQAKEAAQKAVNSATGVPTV

[2] = target: T1, Polyadenylate-binding protein 1; assay: PABP1 MLLE–PAM2 binding inhibitor potency, dose response, biochemical, fluorescence polarization, FITC-PAM2 peptide (AID 602259); format: functional; conditions: read-out: IC50_Mean
[3] = Luminescence Cell-Based Dose Retest to Confirm Inhibitors of Cancer Stem Cells. [Related pubchem assays (depositor defined):AID2717, AID2721]; format: functional; conditions: Homo sapiens
[4] = target: T2, High affinity choline transporter 1 (Homo sapiens, UniProt Q9GZV3); assay: CHT inhibitors, dose response, cell-based, 5-point CRC, membrane potential dye (AID 504840); format: functional
T2 sequence (Q9GZV3 whole entry): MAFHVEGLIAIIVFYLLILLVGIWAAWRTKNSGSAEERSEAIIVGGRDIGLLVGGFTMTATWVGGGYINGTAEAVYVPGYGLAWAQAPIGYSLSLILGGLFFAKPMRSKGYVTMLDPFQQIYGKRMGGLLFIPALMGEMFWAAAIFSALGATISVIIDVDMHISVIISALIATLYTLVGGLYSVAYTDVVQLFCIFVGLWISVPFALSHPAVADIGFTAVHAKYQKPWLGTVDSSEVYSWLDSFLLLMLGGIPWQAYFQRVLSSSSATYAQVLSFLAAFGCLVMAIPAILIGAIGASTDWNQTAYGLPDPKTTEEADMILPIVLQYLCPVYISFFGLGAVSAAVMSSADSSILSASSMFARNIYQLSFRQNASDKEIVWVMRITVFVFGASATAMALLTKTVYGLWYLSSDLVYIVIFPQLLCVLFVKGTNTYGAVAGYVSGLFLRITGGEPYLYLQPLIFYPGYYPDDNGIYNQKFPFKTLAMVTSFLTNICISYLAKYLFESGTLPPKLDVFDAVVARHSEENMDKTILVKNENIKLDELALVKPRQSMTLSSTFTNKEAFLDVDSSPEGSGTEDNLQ

Exodeoxyribonuclease V = target: T3, Exodeoxyribonuclease V (Escherichia coli (strain K12), UniProt P04993+P07648+P08394); assay: E. coli RecBCD inhibitors, dose response, counter-screen for AddAB inhibitor project, absorbance, V66 E. coli, mutant T4 phage (AID 492957); format: functional, cell-based, Escherichia coli str. K-12 substr. MG1655
T3 sequence (P04993 whole entry): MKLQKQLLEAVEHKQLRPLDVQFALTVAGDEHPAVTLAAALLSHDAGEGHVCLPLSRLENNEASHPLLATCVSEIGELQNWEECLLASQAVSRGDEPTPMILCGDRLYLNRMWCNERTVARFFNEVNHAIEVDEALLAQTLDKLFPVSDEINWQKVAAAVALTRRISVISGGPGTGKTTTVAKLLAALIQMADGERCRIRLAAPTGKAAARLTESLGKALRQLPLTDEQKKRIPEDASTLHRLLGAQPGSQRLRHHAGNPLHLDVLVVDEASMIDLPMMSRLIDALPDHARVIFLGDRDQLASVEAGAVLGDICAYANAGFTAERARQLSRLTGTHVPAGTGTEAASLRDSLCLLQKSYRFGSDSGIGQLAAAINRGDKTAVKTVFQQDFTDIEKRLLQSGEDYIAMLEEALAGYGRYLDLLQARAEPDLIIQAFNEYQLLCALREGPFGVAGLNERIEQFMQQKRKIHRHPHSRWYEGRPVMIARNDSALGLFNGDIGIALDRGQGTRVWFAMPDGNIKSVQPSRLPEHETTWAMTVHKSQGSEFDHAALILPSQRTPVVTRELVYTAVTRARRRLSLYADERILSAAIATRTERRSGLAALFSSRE
T3 sequence (P07648 whole entry): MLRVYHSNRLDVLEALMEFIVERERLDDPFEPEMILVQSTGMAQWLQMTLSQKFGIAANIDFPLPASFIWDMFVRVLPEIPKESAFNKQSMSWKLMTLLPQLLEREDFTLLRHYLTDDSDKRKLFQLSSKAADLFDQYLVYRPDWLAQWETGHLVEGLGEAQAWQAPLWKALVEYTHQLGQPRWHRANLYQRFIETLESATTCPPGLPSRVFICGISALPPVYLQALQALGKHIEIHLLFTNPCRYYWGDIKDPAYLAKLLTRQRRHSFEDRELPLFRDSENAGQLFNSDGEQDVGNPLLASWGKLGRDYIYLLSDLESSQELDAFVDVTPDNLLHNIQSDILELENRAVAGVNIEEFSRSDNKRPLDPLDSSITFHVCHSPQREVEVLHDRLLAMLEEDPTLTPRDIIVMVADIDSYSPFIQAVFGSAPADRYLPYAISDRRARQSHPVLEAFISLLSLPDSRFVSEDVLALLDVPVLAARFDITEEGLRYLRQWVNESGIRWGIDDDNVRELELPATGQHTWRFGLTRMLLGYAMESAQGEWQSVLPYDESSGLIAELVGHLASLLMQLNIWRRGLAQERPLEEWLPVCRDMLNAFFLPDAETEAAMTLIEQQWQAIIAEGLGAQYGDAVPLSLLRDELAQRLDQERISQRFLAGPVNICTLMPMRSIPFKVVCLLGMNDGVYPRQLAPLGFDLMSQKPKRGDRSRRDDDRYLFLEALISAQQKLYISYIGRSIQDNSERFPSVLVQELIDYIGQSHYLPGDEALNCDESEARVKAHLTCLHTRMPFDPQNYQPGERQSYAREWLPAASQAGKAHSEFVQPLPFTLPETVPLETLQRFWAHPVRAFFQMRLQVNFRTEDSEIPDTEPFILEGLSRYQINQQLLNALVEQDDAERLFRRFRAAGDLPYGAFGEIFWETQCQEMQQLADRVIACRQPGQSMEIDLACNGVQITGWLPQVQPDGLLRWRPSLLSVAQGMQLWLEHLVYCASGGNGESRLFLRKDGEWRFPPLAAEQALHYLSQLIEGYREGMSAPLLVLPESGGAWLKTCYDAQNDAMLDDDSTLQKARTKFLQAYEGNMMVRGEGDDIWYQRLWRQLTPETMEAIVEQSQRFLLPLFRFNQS
T3 sequence (P08394 whole entry): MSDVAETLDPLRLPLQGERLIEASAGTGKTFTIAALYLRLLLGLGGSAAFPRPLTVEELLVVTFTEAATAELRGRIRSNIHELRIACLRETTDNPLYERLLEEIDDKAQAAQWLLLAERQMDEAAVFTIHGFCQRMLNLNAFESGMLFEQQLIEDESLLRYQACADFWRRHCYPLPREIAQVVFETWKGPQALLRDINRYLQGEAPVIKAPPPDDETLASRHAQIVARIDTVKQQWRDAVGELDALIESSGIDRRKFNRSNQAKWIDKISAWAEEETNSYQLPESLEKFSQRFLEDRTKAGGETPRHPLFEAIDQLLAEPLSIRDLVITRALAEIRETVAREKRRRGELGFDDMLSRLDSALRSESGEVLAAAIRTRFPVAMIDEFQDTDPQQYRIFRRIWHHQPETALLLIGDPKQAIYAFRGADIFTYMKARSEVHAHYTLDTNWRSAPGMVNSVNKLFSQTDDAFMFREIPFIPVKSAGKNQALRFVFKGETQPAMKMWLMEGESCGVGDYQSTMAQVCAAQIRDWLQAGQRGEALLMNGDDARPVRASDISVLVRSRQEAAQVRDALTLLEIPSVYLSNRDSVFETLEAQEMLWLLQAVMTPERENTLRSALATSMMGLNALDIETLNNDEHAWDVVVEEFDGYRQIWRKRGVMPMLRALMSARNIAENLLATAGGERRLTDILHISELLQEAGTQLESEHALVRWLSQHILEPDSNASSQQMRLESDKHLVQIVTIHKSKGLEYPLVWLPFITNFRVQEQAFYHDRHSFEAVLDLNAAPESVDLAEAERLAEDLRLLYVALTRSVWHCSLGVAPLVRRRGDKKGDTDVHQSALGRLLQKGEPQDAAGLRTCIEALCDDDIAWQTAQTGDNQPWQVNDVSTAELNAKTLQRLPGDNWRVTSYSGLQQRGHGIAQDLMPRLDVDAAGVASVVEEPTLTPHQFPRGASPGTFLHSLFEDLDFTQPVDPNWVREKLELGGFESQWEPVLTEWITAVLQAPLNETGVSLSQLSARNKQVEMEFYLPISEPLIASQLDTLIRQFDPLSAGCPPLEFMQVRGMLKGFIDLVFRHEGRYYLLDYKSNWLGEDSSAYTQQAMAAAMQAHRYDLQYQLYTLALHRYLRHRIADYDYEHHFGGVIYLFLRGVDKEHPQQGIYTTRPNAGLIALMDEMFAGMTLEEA

[5] = target: T4, Replicative DNA helicase DnaB (Mycobacterium tuberculosis, UniProt P9WMR3); assay: DnaB intein splicing inhibitors, dose response, biochemical, cell-free fluorescence (AID 449749); format: functional
T4 sequence (P9WMR3 whole entry): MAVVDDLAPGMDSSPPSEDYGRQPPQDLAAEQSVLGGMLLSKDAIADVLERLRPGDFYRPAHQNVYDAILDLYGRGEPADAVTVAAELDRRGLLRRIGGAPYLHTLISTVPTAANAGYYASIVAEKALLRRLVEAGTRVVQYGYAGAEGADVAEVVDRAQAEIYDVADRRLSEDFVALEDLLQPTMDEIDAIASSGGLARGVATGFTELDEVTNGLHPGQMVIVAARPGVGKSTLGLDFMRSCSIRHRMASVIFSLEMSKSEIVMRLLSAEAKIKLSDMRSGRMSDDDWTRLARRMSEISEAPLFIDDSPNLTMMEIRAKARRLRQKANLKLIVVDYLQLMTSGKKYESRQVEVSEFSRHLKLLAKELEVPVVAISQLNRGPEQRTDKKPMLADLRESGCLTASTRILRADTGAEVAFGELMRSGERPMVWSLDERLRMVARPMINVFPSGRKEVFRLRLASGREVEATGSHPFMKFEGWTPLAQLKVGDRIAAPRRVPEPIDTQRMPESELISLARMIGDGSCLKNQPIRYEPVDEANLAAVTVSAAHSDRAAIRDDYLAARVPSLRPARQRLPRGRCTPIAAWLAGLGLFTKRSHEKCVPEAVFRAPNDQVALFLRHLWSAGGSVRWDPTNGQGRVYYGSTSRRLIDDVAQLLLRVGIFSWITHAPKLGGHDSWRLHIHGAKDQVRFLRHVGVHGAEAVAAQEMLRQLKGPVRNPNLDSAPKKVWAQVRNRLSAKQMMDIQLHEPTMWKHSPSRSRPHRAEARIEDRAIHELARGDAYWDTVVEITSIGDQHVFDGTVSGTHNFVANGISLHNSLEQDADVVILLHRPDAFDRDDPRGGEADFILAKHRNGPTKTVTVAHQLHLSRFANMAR

[6] = target: Heat shock protein HSP 90-alpha (Homo sapiens, UniProt P07900); format: functional, organism-based
Protein RecA = target: T5, Protein RecA (Mycobacterium tuberculosis, UniProt P9WHJ3); assay: Fluorescence Cell-Free Homogeneous Dose Retest to Identify Inhibitors of RecA-Intein Splicing Activity. [Related pubchem assays (depositor defined):AID2097, AID2223, AID489010, AID492950]; format: functional
T5 sequence (P9WHJ3 whole entry): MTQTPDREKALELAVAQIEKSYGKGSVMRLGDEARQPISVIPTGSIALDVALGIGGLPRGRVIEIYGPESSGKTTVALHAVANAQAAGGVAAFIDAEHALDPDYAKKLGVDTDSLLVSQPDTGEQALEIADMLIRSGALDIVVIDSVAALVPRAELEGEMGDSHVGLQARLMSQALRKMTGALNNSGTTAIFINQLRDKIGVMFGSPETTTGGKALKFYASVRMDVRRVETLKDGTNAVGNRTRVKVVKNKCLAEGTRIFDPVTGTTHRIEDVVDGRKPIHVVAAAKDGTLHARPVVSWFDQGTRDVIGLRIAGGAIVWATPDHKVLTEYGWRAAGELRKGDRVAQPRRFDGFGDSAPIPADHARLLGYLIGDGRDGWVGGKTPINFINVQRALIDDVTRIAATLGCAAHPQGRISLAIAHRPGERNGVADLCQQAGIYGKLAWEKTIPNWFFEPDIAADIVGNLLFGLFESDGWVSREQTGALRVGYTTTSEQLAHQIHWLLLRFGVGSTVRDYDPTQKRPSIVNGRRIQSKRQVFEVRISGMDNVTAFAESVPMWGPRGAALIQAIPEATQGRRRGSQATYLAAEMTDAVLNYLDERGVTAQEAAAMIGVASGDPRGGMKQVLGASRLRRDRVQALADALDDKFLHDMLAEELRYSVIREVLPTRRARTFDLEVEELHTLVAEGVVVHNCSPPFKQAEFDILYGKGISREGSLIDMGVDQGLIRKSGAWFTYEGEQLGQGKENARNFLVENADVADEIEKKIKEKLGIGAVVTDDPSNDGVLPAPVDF

P388/ADR = assay: cells; format: functional; conditions: Mus musculus
SN12K1 = assay: cells; format: functional; conditions: Homo sapiens
P388 = assay: cells; format: functional; conditions: Mus musculus
[7] = microbe, parasite or virus in culture; format: functional; conditions: Mycobacterium tuberculosis

Compound: Cc1cc(C)c2c(N)c(C(=O)NCC3CCCCC3)sc2n1
- IC50 [1]: > 66 µM (inactive)
- IC50 [2]: > 66 µM (inactive)

Compound: Oc1cccc(C(O)CNCc2ccc(OCc3ccc(Cl)cc3Cl)cc2)c1 (configuration not stated)
- AC50 [3]: 3.69 µM (active)
- IC50 [4]: 1.82 µM (active)

Compound: CCc1cn([C@H]2C[C@H](O)[C@@H](CO)O2)c(=O)[nH]c1=O [EDOXUDINE]
- IC50 (Exodeoxyribonuclease V): > 119 µM (inactive) and > 118 µM (inactive)

Compound: Cc1cccc(C2c3[nH]c4ccccc4c3CCN2C(=O)c2cc3c(nc2O)CCCC3)n1 (configuration not stated)
- IC50 [4]: 11.2 µM (active)

Compound: C=CCn1cc(C(=O)NCCCN(CC)CC)c(=O)c2cc(S(=O)(=O)N3CCC(C)CC3)ccc21
- IC50 [4]: 13.2 µM (active)

Compound: Cc1ccc(S(=O)(=O)Oc2ccc(/C=C3/C(=N)N4C(=NC3=O)SN=C4S(C)(=O)=O)cc2)cc1
- IC50 [4]: 13.8 µM (active)

Compound: COc1ccc(OC)c(NC(=O)Nc2ccc(O)c3ccccc23)c1
- AC50 [5]: 11.5 µM (active)
- AC50 [6]: 0.434 µM (active)
- EC50 (Protein RecA): 0.152 µM (active)

Compound: O=C(/C=C/c1ccccc1)CCN1CCOCC1
- AC50 [6]: 2.94 µM (active)
- GI50 (P388/ADR): 2.43 µM (inactive)
- GI50 (SN12K1): 16.5 µM (inactive)
- GI50 (P388): 2.81 µM (inactive)

Compound: O=C(OCC(=O)C12CC3CC(CC(C3)C1)C2)c1ccc(O)cc1O
- CC50 [7]: > 40 µM (active)
- AC50 [6]: 24.5 µM (active)
